Patent US20230025537A1, “MIXTURE COMPRISING HYDROGENATED SOYBEAN OIL AND THYMOL” (DSM IP Assets B.V., priority 2019, published 2023)
≈ marks a conversion by molar mass, not a printed value. Read-outs that look alike come from different tables or passages of the source.

Legend:
E. coli K88+ [1] = assay: MIC by two-fold broth dilution method; type: cell-based; details: Escherichia coli, 24 h, read-out: MIC values, Escheria coli K88^+
S. choleraesuis = assay: MIC by two-fold broth dilution method; type: cell-based; details: Salmonella enterica, 24 h, read-out: MIC values, Salmonella choleraesius
Cl. perfringens = assay: microbe, parasite or virus in culture; type: cell-based; details: Clostridium perfringens, 24 h, read-out: MIC values, Clostrisium perfringens
E. coli K88+ [2] = type: cell-based, Escherichia coli K88+; details: individually

Row | Structure (SMILES) | MIC (E. coli K88+ [1]) | MIC (S. choleraesuis) | MIC (Cl. perfringens) | Lag phase (λ) (E. coli K88+ [2]; dosage 0.25 mmol/L) | Lag phase (λ) (E. coli K88+ [2]; dosage 0.5 mmol/L)
1 | C=CCc1ccc(O)c(OC)c1 [Eugenol, eugenol] | 2500 µM (≈ 411 µg/mL) | 2500 µM (≈ 411 µg/mL) | 4000 µM (≈ 657 µg/mL) | 1.77 | 1.91
2 | Cc1ccc(C(C)C)c(O)c1 [Thymol, thymol] | 1500 µM (≈ 225 µg/mL) | 1000 µM (≈ 150 µg/mL) | 1000 µM (≈ 150 µg/mL) | 1.66 | 1.65
